From US12479905B2, “Peptide used for immunotherapeutics” (3H BIO. CO., LTD., priority 2020, dated 2025)
Non-standard residues stand in square brackets, D forms with d. No end group written: not given here. Cha = N[C@@H](CC1CCCCC1)C(=O)O; Ahx = NCCCCCC(=O)O

Assays:
[1] = Weight measurement of high-fat-diet mice after in vivo administration of peptide composition (Experimental Example 7); conditions: C57BL/6J male, high-fat diet after 10 weeks; intramuscular administration at 8, 10, 12 and 14 weeks of age; 50 μg peptide/100 μL with PHAD and Alhydrogel
Excerpt: In order to test the effect of the composition for in vivo administration prepared in Experimental Example 1.5, C57BL/6, Balbc and/or ICR species were used as experimental mice (purchased from Central Lab Animal Inc.). Although there were some differences in species, the mice purchased were 7-week-old on average and they were acclimatized for one week, and were used for experiments when they were 8 weeks of age. Experimental mice were reared under the conditions of a constant temperature and humidity environment within the temperature range of 23±1° C., relative humidity of 50±5%, and an environment controlled as 12-hour light room/12 hour dark room. Drinking water and food were provided ad libitum. In the case of a normal diet (purchased from Central Lab Animal Inc.), it consisted of 20% protein, 70% carbohydrate, and 10% fat based on total calories, whereas in the case of an obesity-inducing diet (purchased from Research diets), it consisted of a high-fat diet including 20% protein, 20% carbohydrate, and 60% fat based on total calories. Experimental mice were divided into each group to have different dietary conditions and composition administration conditions, and experiments were performed with the number of individuals that could be statistically processed for each experimental group. Detailed conditions are as disclosed in each specific experimental example.
For a test subject prepared in Experimental Example 1.6, different compositions were administered for each experimental group. All administration compositions were administered by an intramuscular injection method, and after disinfecting muscles of both thighs of each mouse with an alcohol swab, 50 μL each with a total amount of 100 μL was injected.
From the time of arrival to the end of the experiment for each experimental group of mice, the average was calculated after measuring three times per week to obtain the average weight value for each week. After completion of the experiment, each mouse was anesthetized, organs were dissected, and weights were measured, and the average was obtained for each experimental group.
According to Experimental Example 1.7, the composition for in vivo administration was administered to the test subject. In particular, the administration cycle was as follows: 8 weeks, 10 weeks, 12 weeks, and 14 weeks of age.
(1) According to Experimental Example 1.8, the weight of a test subject for each experimental group was measured.

[2] = test system: RNVPPIFNDVYWIAF (SEQ ID NO: 6); experiment: Confirmation of antibody titer in serum by ELISA using the target antigen (Experimental Example 7); type: in vivo, C57BL/6J, male mice; conditions: serum at 11, 16 and 19 weeks of age; ELISA antigen SEQ ID NO: 6 only; administration at 8, 10, 12 and 14 weeks
Excerpt: In order to determine whether the composition for in vivo administration administered in Experimental Example 1.7 induced an antibody against the B-cell epitope, a method for confirming the antibody titer using the target antigen is as follows. In particular, the target antigen is RNVPPIFNDVYWIAF (SEQ ID NO: 6) or ApoB100. The time to confirm the antibody titer may vary as needed, and the time was specifically described for each experimental example.
1-1) For each injection of a composition for in vivo administration into a test subject, collect about 200 μL of blood from the subject's tail vein one week after the injection.
1-2) After placing the collected blood at 4° C. for one hour, perform centrifugation of the blood sample at 14,000 rpm for 10 minutes to separate the serum, which is the supernatant.
1-3) Dilute the target antigen to a concentration of 50 μg/100 μL in coating buffer (0.05 M, bicarbonate, pH 9.6) and add the antigen to a 96-well plate in an amount of 50 μg per well, and allow them to react overnight at 4° C. so that the peptide is coated on the wall of the well.
1-4) Wash the target antigen-coated plate three times using 300 μL of phosphate buffered saline (PBS)-T (0.05% with Tween-20) per well.
2-1) Add 300 μL of a 0.5% casein blocking solution per well in the plate, and allow to react overnight at 4° C.
2-2) Wash the plate three times with 300 μL of PBS-T per well.
3-1) As the primary antibody reaction, dilute the separated serum to an appropriate concentration, add it in an amount of 100 μL per well, and allow to react at 37° C. for one hour. In particular, after the initial injection, subject the serum to serial dilution by diluting the same to 1/20 to 1/1,000 in the experiment, and 1/500 to 1/10,000 depending on the subject during the experiment after the second to third injections. As a positive control, use a monoclonal antibody against the peptide of SEQ ID NO: 41 after purification.
3-2) After the reaction of 3-1, wash the plate three times with 300 μL of PBS-T per well.
4-1) As a secondary antibody reaction, add 100 μL of horseradish peroxidase (HRP) conjugated to anti-mouse IgG antibody recognizing a mouse antibody per well, and allow them to react at 37° C. for one hour.
4-2) After the reaction of 4-1), wash the plate three times with 300 μL of PBS-T per well.
5-1) Add 100 μL of a o-phenylenediamine dihydrochloride (OPD) solution per well, and allow to react at 37° C. for 10 minutes, and measure the absorbance at OD 450 nm (Synergy HT microplate reader, BioTek).
Obtain the antibody titer in serum by converting the extinction coefficient, which is measured based on 1 mg/mL concentration of the monoclonal antibody against the target antibody as a positive control.
(2) According to Experimental Example 1.9, the antibody titers observed in a test subject for each experimental group at 11 weeks, 16 weeks, and 19 weeks were confirmed. In particular, the target antigen was determined using RNVPPIFNDVYWIAF (SEQ ID NO: 6).

**Q.** Which “weight loss effect compared to the control group (Obese)” value [1] does the source give for “KTTKQSFDLSVKAQYKKNKHZaK(Cha)VAAWTLKAAaZCRFRGLISLSQVYLS (KTTKQSFDLSVKAQYKKNKH[Ahx][dA]K[Cha]VAAWTLKAA[dA][Ahx]CRFRGLISLSQVYLS) [P4]” here?
**A.** Its value is “there was a weight loss effect”.

**Q.** Which results are given for “RNVPPIFNDVYWIAFZaK(Cha)VAAWTLKAAaZCRFRGLISLSQVYLS (RNVPPIFNDVYWIAF[Ahx][dA]K[Cha]VAAWTLKAA[dA][Ahx]CRFRGLISLSQVYLS) [P1]”?
**A.** antibody titer to RNVPPIFNDVYWIAF (SEQ ID NO: 6) [2]: there were individuals showing a large antibody titer depending on the individual, and there were also individuals which showed no antibody titer; weight loss effect compared to the control group (Obese) [1]: weight loss effect

**Q.** With “RNVPPIFNDVYWIAFCRFRGLISLSQVYLSZaK(Cha)VAAWTLKAAaZ (RNVPPIFNDVYWIAFCRFRGLISLSQVYLS[Ahx][dA]K[Cha]VAAWTLKAA[dA][Ahx]) [P5]” as the substance, how does the “weight loss effect compared to the control group (Obese)” value [1] read?
**A.** The value was “a weight loss effect is observed”.

**Q.** Which “antibody titer to RNVPPIFNDVYWIAF (SEQ ID NO: 6)” value (shortened to “antibody titer … (SEQ ID NO: 6)”) [2] does the source give for “RNVPPIFNDVYWIAFZaK(Cha)VAAWTLKAAaZ (RNVPPIFNDVYWIAF[Ahx][dA]K[Cha]VAAWTLKAA[dA][Ahx]) [P7]” here?
**A.** The value was “observed”.

**Q.** What about the “weight loss effect compared to the control group (Obese)” value [1] of the same substance?
**A.** Its value is “weight loss effect appeared”.

**Q.** Which results are given for “RNVPPIFNDVYWIAFK(Cha)VAAWTLKAAHHHHHH (RNVPPIFNDVYWIAFK[Cha]VAAWTLKAAHHHHHH) [P9]”?
**A.** antibody titer to RNVPPIFNDVYWIAF (SEQ ID NO: 6) [2]: observed; weight loss effect compared to the control group (Obese) [1]: weight loss effect appeared

**Q.** With “RNVPPIFNDVYWIAFZaK(Cha)VAAWTLKAAaZGSHHHHHHGSDDDDK (RNVPPIFNDVYWIAF[Ahx][dA]K[Cha]VAAWTLKAA[dA][Ahx]GSHHHHHHGSDDDDK) [P2]” as the substance, how does the “antibody titer … (SEQ ID NO: 6)” value [2] read?
**A.** The value was “observed”.

**Q.** What about the “weight loss effect compared to the control group (Obese)” value [1] of the same substance?
**A.** Its value is “weight loss effect appeared”.

**Q.** Which “antibody titer … (SEQ ID NO: 6)” value [2] does the source give for “GSHHHHHHGSDDDDKZaK(Cha)VAAWTLKAAaZRNVPPIFNDVYWIAF (GSHHHHHHGSDDDDK[Ahx][dA]K[Cha]VAAWTLKAA[dA][Ahx]RNVPPIFNDVYWIAF) [P3]” here?
**A.** The value was “observed”.

**Q.** And the “weight loss effect compared to the control group (Obese)” value [1]?
**A.** The value was “weight loss effect appeared”.

**Q.** Which “antibody titer … (SEQ ID NO: 6)” value [2] does the source give for “RNVPPIFNDVYWIAFK(Cha)VAAWTLKAA (RNVPPIFNDVYWIAFK[Cha]VAAWTLKAA) [P8]” here?
**A.** The value was “shown”.

**Q.** And the “weight loss effect compared to the control group (Obese)” value [1]?
**A.** Its value is “weight loss effect was shown”.
